Data reported in US20240246942A1, “KINASE INHIBITORS FOR THE TREATMENT OF NEURODEGENERATIVE DISEASES” (priority 2020, published 2024).

Assays:
Assay in all cases: biochemical
[1] = biological target: T1, panel of 374 wild-type kinases (Homo sapiens, UniProt Q9NRM7); settings: read-out: % Enzyme Activity (relative to DMSO controls), LATS2
T1 construct: purchased Reaction Biology Corporation
T1 sequence (Q9NRM7 1-1088): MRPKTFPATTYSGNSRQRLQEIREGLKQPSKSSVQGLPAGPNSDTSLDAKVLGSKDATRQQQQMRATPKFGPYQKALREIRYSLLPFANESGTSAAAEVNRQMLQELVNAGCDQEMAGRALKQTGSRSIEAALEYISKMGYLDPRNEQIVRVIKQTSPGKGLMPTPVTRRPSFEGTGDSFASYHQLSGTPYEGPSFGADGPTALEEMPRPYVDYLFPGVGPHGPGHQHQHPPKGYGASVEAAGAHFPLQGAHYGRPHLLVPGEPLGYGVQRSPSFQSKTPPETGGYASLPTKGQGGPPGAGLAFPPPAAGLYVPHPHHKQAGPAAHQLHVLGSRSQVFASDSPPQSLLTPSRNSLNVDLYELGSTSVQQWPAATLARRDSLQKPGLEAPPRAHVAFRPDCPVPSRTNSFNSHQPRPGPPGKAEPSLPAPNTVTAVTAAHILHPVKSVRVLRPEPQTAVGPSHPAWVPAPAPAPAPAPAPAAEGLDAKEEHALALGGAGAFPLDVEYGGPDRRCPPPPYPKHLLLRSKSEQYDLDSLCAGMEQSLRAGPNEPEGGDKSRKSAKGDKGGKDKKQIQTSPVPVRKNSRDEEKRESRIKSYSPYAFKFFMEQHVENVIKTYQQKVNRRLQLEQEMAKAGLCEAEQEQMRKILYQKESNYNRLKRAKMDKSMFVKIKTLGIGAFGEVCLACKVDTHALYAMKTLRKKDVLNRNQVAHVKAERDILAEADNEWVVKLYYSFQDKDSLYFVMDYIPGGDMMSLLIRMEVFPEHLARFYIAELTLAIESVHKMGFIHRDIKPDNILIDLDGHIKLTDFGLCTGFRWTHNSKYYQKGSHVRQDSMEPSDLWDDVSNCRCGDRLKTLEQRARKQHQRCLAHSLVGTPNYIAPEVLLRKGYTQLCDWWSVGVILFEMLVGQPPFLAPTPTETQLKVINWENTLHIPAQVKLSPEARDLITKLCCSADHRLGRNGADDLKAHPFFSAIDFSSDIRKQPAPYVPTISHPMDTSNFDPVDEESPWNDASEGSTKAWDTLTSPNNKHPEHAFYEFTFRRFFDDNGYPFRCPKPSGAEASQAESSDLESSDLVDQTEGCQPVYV

[2] = biological target: T2, panel of 374 wild-type kinases (Homo sapiens, UniProt P12931); settings: read-out: % Enzyme Activity (relative to DMSO controls), c-Src
T2 construct: purchased Reaction Biology Corporation
T2 sequence (P12931 whole entry): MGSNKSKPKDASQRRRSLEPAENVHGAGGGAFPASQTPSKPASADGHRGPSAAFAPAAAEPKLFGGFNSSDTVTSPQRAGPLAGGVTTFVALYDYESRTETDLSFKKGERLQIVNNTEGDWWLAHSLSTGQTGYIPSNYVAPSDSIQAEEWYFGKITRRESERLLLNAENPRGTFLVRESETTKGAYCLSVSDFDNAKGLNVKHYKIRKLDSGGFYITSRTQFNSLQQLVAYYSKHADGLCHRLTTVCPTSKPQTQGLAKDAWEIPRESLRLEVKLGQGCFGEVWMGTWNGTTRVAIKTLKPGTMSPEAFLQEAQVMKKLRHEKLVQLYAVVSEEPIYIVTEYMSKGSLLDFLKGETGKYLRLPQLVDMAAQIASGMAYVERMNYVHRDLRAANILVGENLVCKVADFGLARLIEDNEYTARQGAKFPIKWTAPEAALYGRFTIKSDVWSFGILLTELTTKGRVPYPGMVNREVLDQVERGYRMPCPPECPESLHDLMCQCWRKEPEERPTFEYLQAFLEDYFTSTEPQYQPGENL

[3] = biological target: T3, panel of 374 wild-type kinases (Homo sapiens, UniProt O00444); settings: read-out: % Enzyme Activity (relative to DMSO controls), kinase PLK4/SAK
T3 construct: purchased Reaction Biology Corporation
T3 sequence (O00444 1-970): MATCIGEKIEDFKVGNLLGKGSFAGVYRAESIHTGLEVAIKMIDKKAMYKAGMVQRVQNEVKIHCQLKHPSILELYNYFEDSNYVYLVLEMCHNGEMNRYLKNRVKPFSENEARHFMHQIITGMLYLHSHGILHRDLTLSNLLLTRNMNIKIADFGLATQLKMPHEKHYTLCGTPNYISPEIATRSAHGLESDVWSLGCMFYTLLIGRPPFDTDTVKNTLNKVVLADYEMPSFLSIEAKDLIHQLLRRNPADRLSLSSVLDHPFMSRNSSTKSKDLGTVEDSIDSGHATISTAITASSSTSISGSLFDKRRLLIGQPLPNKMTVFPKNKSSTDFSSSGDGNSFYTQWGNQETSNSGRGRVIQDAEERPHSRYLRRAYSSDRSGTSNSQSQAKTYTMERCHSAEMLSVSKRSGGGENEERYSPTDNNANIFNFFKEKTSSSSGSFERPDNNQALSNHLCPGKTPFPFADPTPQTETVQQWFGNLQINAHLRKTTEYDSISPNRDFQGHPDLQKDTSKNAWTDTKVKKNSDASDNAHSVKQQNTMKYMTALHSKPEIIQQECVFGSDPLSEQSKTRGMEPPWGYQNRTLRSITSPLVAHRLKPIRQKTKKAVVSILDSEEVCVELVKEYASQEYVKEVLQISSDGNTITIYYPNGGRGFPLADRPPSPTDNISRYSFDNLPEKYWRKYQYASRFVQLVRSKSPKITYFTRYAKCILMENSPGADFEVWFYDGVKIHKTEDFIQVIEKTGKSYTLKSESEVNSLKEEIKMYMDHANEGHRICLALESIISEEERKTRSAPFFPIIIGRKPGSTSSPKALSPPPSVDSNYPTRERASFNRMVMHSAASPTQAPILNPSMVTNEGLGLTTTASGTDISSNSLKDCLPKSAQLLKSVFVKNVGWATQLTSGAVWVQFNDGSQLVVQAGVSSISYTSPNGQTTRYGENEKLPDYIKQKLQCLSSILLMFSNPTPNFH

[4] = biological target: T4, panel of 374 wild-type kinases (Homo sapiens, UniProt Q8NEV4); settings: MYO3A, read-out: % Enzyme Activity (relative to DMSO controls)
T4 construct: purchased Reaction Biology Corporation
T4 sequence (Q8NEV4 whole entry): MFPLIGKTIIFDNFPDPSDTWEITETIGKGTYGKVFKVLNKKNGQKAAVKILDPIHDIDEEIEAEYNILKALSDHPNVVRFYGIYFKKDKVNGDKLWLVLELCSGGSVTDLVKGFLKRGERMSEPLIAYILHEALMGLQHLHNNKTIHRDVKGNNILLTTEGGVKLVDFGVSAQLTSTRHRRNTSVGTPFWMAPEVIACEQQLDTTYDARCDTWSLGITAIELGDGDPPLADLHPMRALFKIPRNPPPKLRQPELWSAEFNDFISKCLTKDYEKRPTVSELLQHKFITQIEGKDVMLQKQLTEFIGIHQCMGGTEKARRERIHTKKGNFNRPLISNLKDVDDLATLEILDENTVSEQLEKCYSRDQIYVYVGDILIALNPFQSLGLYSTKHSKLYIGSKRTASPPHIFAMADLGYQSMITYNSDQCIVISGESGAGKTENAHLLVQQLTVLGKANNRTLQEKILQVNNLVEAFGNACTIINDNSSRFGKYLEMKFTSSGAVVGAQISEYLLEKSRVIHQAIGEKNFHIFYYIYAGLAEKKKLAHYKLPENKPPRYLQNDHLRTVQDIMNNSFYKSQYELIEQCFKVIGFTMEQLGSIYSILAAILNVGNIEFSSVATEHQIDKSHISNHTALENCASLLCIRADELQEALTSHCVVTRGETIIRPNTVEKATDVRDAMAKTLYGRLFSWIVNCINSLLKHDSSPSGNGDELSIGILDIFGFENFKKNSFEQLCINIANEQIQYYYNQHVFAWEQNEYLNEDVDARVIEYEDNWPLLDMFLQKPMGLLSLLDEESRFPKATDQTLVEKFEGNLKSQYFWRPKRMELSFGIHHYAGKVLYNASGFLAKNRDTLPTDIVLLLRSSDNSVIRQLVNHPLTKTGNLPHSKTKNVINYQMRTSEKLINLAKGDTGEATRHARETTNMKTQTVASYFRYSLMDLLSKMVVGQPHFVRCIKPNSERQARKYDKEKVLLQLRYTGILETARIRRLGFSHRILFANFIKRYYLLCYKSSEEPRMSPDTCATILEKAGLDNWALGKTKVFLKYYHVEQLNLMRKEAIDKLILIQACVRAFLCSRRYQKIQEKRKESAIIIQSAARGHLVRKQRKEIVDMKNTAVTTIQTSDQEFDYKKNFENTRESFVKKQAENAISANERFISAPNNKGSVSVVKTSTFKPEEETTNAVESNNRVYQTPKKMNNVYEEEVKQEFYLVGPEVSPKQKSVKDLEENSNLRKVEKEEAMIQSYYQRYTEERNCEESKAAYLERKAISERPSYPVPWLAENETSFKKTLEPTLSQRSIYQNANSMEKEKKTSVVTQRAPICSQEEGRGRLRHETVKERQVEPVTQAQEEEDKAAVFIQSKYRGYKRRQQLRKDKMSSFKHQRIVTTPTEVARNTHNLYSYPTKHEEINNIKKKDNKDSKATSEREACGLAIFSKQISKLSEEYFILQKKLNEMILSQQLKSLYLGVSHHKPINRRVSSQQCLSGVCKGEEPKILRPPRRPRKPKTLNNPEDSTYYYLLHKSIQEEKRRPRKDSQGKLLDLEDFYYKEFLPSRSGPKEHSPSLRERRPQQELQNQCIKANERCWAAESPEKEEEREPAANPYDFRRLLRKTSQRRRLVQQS

Compound | remaining activity at 5 µM [1] | remaining activity at 5 µM [2] | remaining activity at 5 µM [3] | remaining activity at 5 µM [4] | remaining activity at 10 µM ([1]; 10 uM) | remaining activity at 10 µM ([2]; 10 uM) | remaining activity at 10 µM ([3]; 10 uM) | remaining activity at 10 µM ([4]; 10 uM)
O=C(Nc1cnn(-c2csc(C(=O)NC3COC3)c2)c1)Nc1ccccc1Cl [Compound 17, 4-(4-(3-(2-chlorophenyl)ureido)-1H-pyrazol-1-yl)-N-(oxetan-3-yl)thiophene-2-carboxamide] | 96% | 91.1% | 88.2% | 94.5% | – | – | – | –
Cc1sc(C(=O)NC2COC2)cc1-n1cc(NC(=O)Nc2c(F)cccc2Cl)cn1 [Compound 27, 4-(4-(3-(2-chloro-6-fluorophenyl)ureido)-1H-pyrazol-1-yl)-5-methyl-N-(oxetan-3-yl)thiophene-2-carboxamide] | – | – | – | – | 94.7% | 96.6% | 100% | 91.1%
O=C(Nc1cnn(-c2csc(C(=O)NC3COC3)c2)c1)Nc1c(F)cccc1Cl [Compound 25, 4-(4-(3-(2-chloro-6-fluorophenyl)ureido)-1H-pyrazol-1-yl)-N-(oxetan-3-yl)thiophene-2-carboxamide] | 104% | 98.4% | 84.3% | 82.8% | – | – | – | –
